The source of these data is patent publication US8846736B2, “Pyrrole inhibitors of S-nitrosoglutathione reductase as therapeutic agents” (N30 Pharmaceuticals, Inc., priority 2008, dated 2014).

Broadly, the IC50 is the concentration at which inhibition is half-maximal.

This test addresses T1, GSNOR (GSNO Reductase) (Homo sapiens, UniProt P11766).
T1 construct: made in house; host or cells: E. coli (arabinose-induced)
Briefly: GSNOR assay (in vitro inhibition of GSNOR activity, change in 340 nm absorbance). The class given is biochemical. As to conditions: GSNOR inhibitor activity by the assay of Example 2; 0.240 mM GSNO, 0.300 mM NADH, pH 7.4, 25° C.; values given as 'about' bounds. The method, then: Various compounds were tested in vitro for their ability to inhibit GSNOR activity. Representative compounds and their corresponding GSNOR activity are described in a paragraph before Table 1 above. GSNOR expression and purification is described in Biochemistry 2000, 39, 10720-10729.
Pre-cultures were grown from stabs of a GSNOR glycerol stock in 2XYT media containing 100 ug/ml ampicillin after an overnight incubation at 37° C. Cells were then added to fresh 2XYT (4 L) containing ampicillin and grown to an OD (A600) of 0.6-0.9 at 37° C. before induction. GSNOR expression was induced with 0.1% arabinose in an overnight incubation at 20° C.
E. coli cell paste was lysed by nitrogen cavitation and the clarified lysate purified by Ni affinity chromatography on an AKTA FPLC (Amersham Pharmacia). The column was eluted in 20 mM Tris pH 8.0/250 mM NaCl with a 0-500 mM imidazole gradient. […] GSNOR was recovered in the flowthrough fraction and for crystallography is further purified by Q-Sepharose and Heparin flowthrough chromatography in 20 mM Tris pH 8.0, 1 mM DTT, 10 uM ZnSO4.
GSNO and Enzyme/NADH Solutions are made up fresh each day. The Solutions are filtered and allowed to warm to room temperature. GSNO Solution: 100 mM NaPO4 (pH 7.4), 0.480 mM GSNO. 396 μL of GSNO Solution is added to a cuvette followed by 8 μL of test compound in DMSO (or DMSO only for full reaction control) and mixed with the pipette tip. Compounds to be tested are made up at a stock concentration of 10 mM in 100% DMSO. 2 fold serial dilutions are done in 100% DMSO. 8 μL of each dilution are added to an assay so that the final concentration of DMSO in the assay is 1%. The concentrations of compounds tested range from 100 to 0.003 μM. Enzyme/NADH Solution: 100 mM NaPO4 (pH 7.4), 0.600 mM NADH, 1.0 μg/mL GSNO Reductase. 396 μL of the Enzyme/NADH Solution is added to the cuvette to start the reaction. The cuvette is placed in the Cary 3E UV/Visible Spectrophotometer and the change in 340 nm absorbance/min at 25° C. is recorded for 3 minutes. The assays are done in triplicate for each compound concentration. IC50's for each compound are calculated using the standard curve analysis in the Enzyme Kinetics Module of SigmaPlot.
Final assay conditions: 100 mM NaPO4, pH 7.4, 0.240 mM GSNO, 0.300 mM NADH, 0.5 μg/mL GSNO Reductase and 1% DMSO. Final volume: 800 μL/cuvette.

A value given as a limit tells only on which side of the number the result lay.

T1 sequence (P11766 whole entry): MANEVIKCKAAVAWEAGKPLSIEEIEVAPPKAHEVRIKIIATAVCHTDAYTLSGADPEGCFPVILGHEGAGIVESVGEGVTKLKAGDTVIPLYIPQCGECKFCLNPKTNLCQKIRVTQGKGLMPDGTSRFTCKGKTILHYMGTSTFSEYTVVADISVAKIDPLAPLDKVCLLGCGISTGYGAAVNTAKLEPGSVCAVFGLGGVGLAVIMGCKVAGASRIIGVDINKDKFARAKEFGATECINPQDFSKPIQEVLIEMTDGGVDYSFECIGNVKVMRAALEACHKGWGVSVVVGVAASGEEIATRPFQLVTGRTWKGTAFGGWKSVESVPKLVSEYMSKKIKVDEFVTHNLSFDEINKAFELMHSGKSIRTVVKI

`COc1ccc(-c2ccc(CCc3nnn[nH]3)n2-c2ccc(C(N)=O)cc2C)cc1` [Compound 4, 4-(2-(2-(1H-tetrazol-5-yl)ethyl)-5-(4-methoxyphenyl)-1H-pyrrol-1-yl)-3-methylbenzamide] returned an IC50 of under 5000 nM. The compound `Cc1nccn1-c1ccc(-c2ccc(Cc3nnn[nH]3)n2-c2ccc(O)cc2)cc1` [Compound 18, 4-(2-((1H-tetrazol-5-yl)methyl)-5-(4-(2-methyl-1H-imidazol-1-yl)phenyl)-1H-pyrrol-1-yl)phenol] came in with an IC50 of under 1000 nM. The compound `Cc1nccn1-c1ccc(-c2ccc(Cc3nnn[nH]3)n2-c2ccc(O)cc2)s1` [Compound 20, 4-(2-((1H-tetrazol-5-yl)methyl)-5-(5-(2-methyl-1H-imidazol-1-yl)thiophen-2-yl)-1H-pyrrol-1-yl)phenol] gave an IC50 of under 1000 nM. Consider `Oc1ccc(-n2c(CCc3nnn[nH]3)ccc2-c2ccc(-n3ccnc3)cc2)cc1` [Compound 8, 4-(2-(4-(1H-imidazol-1-yl)phenyl)-5-(2-(1H-tetrazol-5-yl)ethyl)-1H-pyrrol-1-yl)phenol], for which the IC50 was under 1000 nM.

The compound `COc1cc(Cl)ccc1-c1ccc(CCc2nnn[nH]2)n1-c1ccc(O)cc1` [Compound 14, 4-(2-(2-(1H-tetrazol-5-yl)ethyl)-5-(4-chloro-2-methoxyphenyl)-1H-pyrrol-1-yl)phenol] showed an IC50 of under 1000 nM. Consider `Cc1cc(NS(C)(=O)=O)ccc1-n1c(Cc2nn[nH]n2)ccc1-c1ccc(-n2ccnc2C)s1` [Compound 22, N-(4-(2-((1H-tetrazol-5-yl)methyl)-5-(5-(2-methyl-1H-imidazol-1-yl)-thiophen-2-yl)-1H-pyrrol-1-yl)-3-methylphenyl)-methanesulfonamide], for which the IC50 was under 1000 nM. Next, `COc1cc(Cl)ccc1-c1ccc(CCc2nnn[nH]2)n1-c1ccc(C(N)=O)cc1C` [Compound 16, 4-(2-(2-(1H-tetrazol-5-yl)ethyl)-5-(4-chloro-2-methoxy-phenyl)-1H-pyrrol-1-yl)-3-methylbenzamide]: under 1000 nM. Next, `COc1ccc(-c2ccc(CCc3nnn[nH]3)n2-c2ccc(O)cc2)cc1` [Compound 13, 4-(2-(2-(1H-tetrazol-5-yl)ethyl)-5-(4-methoxyphenyl)-1H-pyrrol-1-yl)phenol]: under 5000 nM. As to `Cc1cc(C(N)=O)ccc1-n1c(Cc2nnn[nH]2)ccc1-c1ccc(Br)cc1` [Compound 9, 4-(2-((1H-tetrazol-5-yl)methyl)-5-(4-bromophenyl)-1H-pyrrol-1-yl)-3-methylbenzamide], the IC50 was under 1000 nM.

`Oc1ccc(-n2c(Cc3nnn[nH]3)ccc2-c2ccc(-n3ccnc3)cc2)cc1` [Compound 12, 4-(2-(4-(1H-imidazol-1-yl)phenyl)-5-((1H-tetrazol-5-yl)methyl)-1H-pyrrol-1-yl)phenol] had an IC50 of under 1000 nM. With `Oc1ccc(-n2c(Cc3nnn[nH]3)ccc2-c2ccc(Br)cc2)cc1` [Compound 6, 4-(2-((1H-tetrazol-5-yl)methyl)-5-(4-bromophenyl)-1H-pyrrol-1-yl)phenol], the IC50 is under 5000 nM.

Turning to `COc1ccc(-c2ccc(Cc3nnn[nH]3)n2-c2ccc(C(N)=O)cc2C)cc1` [Compound 10, 4-(2-((1H-tetrazol-5-yl)methyl)-5-(4-methoxyphenyl)-1H-pyrrol-1-yl)-3-methylbenzamide], the IC50 was under 5000 nM. The compound `Cc1cc(C(N)=O)ccc1-n1c(CCc2nnn[nH]2)ccc1-c1ccc(Br)cc1` [Compound 11, 4-(2-(2-(1H-tetrazol-5-yl)ethyl)-5-(4-bromophenyl)-1H-pyrrol-1-yl)-3-methylbenzamide] showed an IC50 of under 1000 nM. For the compound `Oc1ccc(-n2c(CCc3nnn[nH]3)ccc2-c2ccc(Br)cc2)cc1` [Compound 5, 4-(2-(2-(1H-tetrazol-5-yl)ethyl)-5-(4-bromophenyl)-1H-pyrrol-1-yl)phenol], the IC50 was under 1000 nM.

As for `COc1cc(Br)ccc1-c1ccc(CCc2nnn[nH]2)n1-c1ccc(C(N)=O)cc1C` [Compound 17, 4-(2-(2-(1H-tetrazol-5-yl)ethyl)-5-(4-bromo-2-methoxy-phenyl)-1H-pyrrol-1-yl)-3-methylbenzamide], the IC50 was under 1000 nM.

As for `Cc1cc(C(N)=O)ccc1-n1c(Cc2nnn[nH]2)ccc1-c1ccc(-n2ccnc2C)cc1` [Compound 21, 4-(2-((1H-tetrazol-5-yl)methyl)-5-(4-(2-methyl-1H-imidazol-1-yl)phenyl)-1H-pyrrol-1-yl)-3-methylbenzamide], the IC50 was under 1000 nM.

With `COc1ccc(-c2ccn(CCc3nnn[nH]3)c2-c2ccc(C(N)=O)cc2C)cc1` [Compound 23, 4-(1-(2-(1H-tetrazol-5-yl)ethyl)-3-(4-methoxy-phenyl)-1H-pyrrol-2-yl)-3-methylbenzamide], the IC50 is under 5000 nM. Next, `NC(=O)c1ccc(-n2c(CCc3nnn[nH]3)ccc2-c2ccccc2)cc1` [Compound 1, 4-(2-(2-(1H-tetrazol-5-yl)ethyl)-5-phenyl-1H-pyrrol-1-yl)benzamide]: under 1000 nM. For `Cc1cc(C(N)=O)ccc1-n1c(Cc2nnn[nH]2)ccc1-c1ccc(-n2ccnc2C)s1` [Compound 19, 4-(2-((1H-tetrazol-5-yl)methyl)-5-(5-(2-methyl-1H-imidazol-1-yl)thiophen-2-yl)-1H-pyrrol-1-yl)-3-methylbenzamide], the IC50 was under 1000 nM. To `COc1cc(Br)ccc1-c1ccc(CCc2nnn[nH]2)n1-c1ccc(O)cc1` [Compound 15, 4-(2-(2-(1H-tetrazol-5-yl)ethyl)-5-(4-bromo-2-methoxyphenyl)-1H-pyrrol-1-yl)phenol] belongs under 1000 nM.
